Results published in ChEMBL document CHEMBL5505979, “Novel aminothiazoximone-corbelled ethoxycarbonylpyrimidones with antibiofilm activity to conquer Gram-negative bacteria through potential multitargeting effects” (Eur J Med Chem, 2024).
Converted amounts (≈) assume the structure as drawn. The source made the active and inactive calls. No cut-off for these calls is given here.

How the values were obtained:
Acinetobacter baumannii [1] = assay: Antibiofilm activity against Acinetobacter baumannii assessed as inhibition rate of bio-film formation at 8 times of MIC concentration in presence of sodium dodecyl sulfate by Crystal violet assay relative to control; assay type: functional, organism-based
Escherichia coli [2] = assay: Anti-bacterial activity against Escherichia coli ATCC 25922 assessed as growth inhibition by measuring optical density measured at 1/4 time of MIC in presence of 1 times of MIC of norfloxacin by Checkerboard assay (reference value: 0.128); assay type: functional
Staphylococcus aureus [3] = assay: Anti-bacterial activity against methicillin-resistant Staphylococcus aureus N315 assessed as inhibition of bacterial growth; assay type: functional; settings: Staphylococcus aureus, N315; read-out: MIC
Escherichia coli [4] = assay: Reduction of biofilm virulent factors in Escherichia coli ATCC 25922 assessed as decrease in extracellular polymeric substances (EPS) at 4 times of MIC concentration by congo red binding assay relative to control; assay type: functional; design: scale not given: the % may be the effect or the level left
Acinetobacter baumannii [5] = assay: Anti-bacterial activity against Acinetobacter baumannii assessed as growth inhibition by measuring optical density measured at 2 time of MIC in presence of 1/4 times of MIC of norfloxacin by Checkerboard assay (reference value: 0.155); assay type: functional
Cell membrane [6] = assay: Induction of membrane damage in Escherichia coli ATCC 25922 assessed as increase in fluorescence intensity at 1 to 4 times of MIC concentration measured after 90 mins by DiSC3 fluorescent probe assay; assay type: cell membranes
Pseudomonas aeruginosa [7] = assay: Anti-bacterial activity against Pseudomonas aeruginosa ATCC 9027 assessed as inhibition of bacterial growth; assay type: functional
Acinetobacter baumannii [8] = assay: Reduction of biofilm virulent factors in Acinetobacter baumannii assessed as decrease in extracellular polymeric substances (EPS) at 2 times of MIC concentration by congo red binding assay relative to control; assay type: functional; design: scale not given: the % may be the effect or the level left
Acinetobacter baumannii [9] = assay: Anti-bacterial activity against Acinetobacter baumannii assessed as growth inhibition by measuring optical density measured at 2 time of MIC in presence of 1/2 times of MIC of norfloxacin by Checkerboard assay (reference value: 0.155); assay type: functional
Acinetobacter baumannii [10] = assay: Anti-bacterial activity against Acinetobacter baumannii R674 assessed as inhibition of bacterial growth; assay type: functional
Escherichia coli [11] = assay: Reduction of biofilm virulent factors in Escherichia coli ATCC 25922 assessed as decrease in extracellular polymeric substances (EPS) by measuring optical density at 490 nm at 1/4 times of MIC concentration by congo red binding assay (reference value: 0.028 to 0.031); assay type: functional
Escherichia coli [12] = assay: Reduction of biofilm virulent factors in Escherichia coli ATCC 25922 assessed as decrease in extracellular polymeric substances (EPS) by measuring optical density at 490 nm at 1 times of MIC concentration by congo red binding assay (reference value: 0.028 to 0.031); assay type: functional
Acinetobacter baumannii [13] = assay: Antibiofilm activity against Acinetobacter baumannii assessed as inhibition rate of bio-film formation at 0.5 times of MIC concentration by Crystal violet assay relative to control; assay type: functional
Acinetobacter baumannii [14] = assay: Anti-bacterial activity against Acinetobacter baumannii assessed as growth inhibition by measuring optical density measured at 1/2 time of MIC in presence of 1/8 times of MIC of norfloxacin by Checkerboard assay (reference value: 0.152); assay type: functional
Acinetobacter baumannii [15] = assay: Reduction of biofilm virulent factors in Acinetobacter baumannii assessed as decrease in extracellular polymeric substances (EPS) by measuring optical density at 490 nm at 1/4 times of MIC concentration by congo red binding assay (reference value: 0.188 to 0.192); assay type: functional
Pseudomonas aeruginosa [16] = assay: Anti-bacterial activity against Pseudomonas aeruginosa ST235 assessed as inhibition of bacterial growth; assay type: functional; settings: Pseudomonas aeruginosa, ST235; read-out: MIC
Escherichia coli [17] = assay: Induction of membrane disturbance in Escherichia coli ATCC 25922 assessed as increase in fluorescence intensity at 0.5 to 8 times of MIC concentration measured after 90 mins by Propidium iodide assay; assay type: functional, organism-based
Calf thymus DNA = assay: Binding affinity to calf thymus DNA assessed as decrease in fluorescence intensity at 530 nm by Acridine Orange based fluorescence spectroscopy; assay type: nucleic-acid assay; settings: Bos taurus
Escherichia coli [18] = assay: Anti-bacterial activity against Escherichia coli ATCC 25922 assessed as growth inhibition by measuring optical density measured at 2 time of MIC in presence of 1/8 times of MIC of norfloxacin by Checkerboard assay (reference value: 0.128); assay type: functional
Pseudomonas aeruginosa [19] = assay: Anti-bacterial activity against Pseudomonas aeruginosa ATCC 27853 assessed as inhibition of bacterial growth; assay type: functional; settings: Pseudomonas aeruginosa, ATCC 27853; read-out: MIC
Escherichia coli [20] = assay: Antibiofilm activity against Escherichia coli ATCC 25922 assessed as inhibition rate of bio-film formation at 8 times of MIC concentration by Crystal violet assay relative to control; assay type: functional
Staphylococcus aureus [21] = assay: Anti-bacterial activity against Staphylococcus aureus ATCC 25923 assessed as inhibition of bacterial growth; assay type: functional; settings: Staphylococcus aureus, ATCC 25923; read-out: MIC
Acinetobacter baumannii [22] = assay: Anti-bacterial activity against Acinetobacter baumannii assessed as fractional inhibitory concentration index measured upto 9 hrs in presence of norfloxacin; assay type: functional
Acinetobacter baumannii [23] = assay: Reduction in metabolic activity of Acinetobacter baumannii assessed as decrease in bacterial lactate dehydrogenase activity at 0.5 to 8 times of MIC concentration; assay type: functional, organism-based
Acinetobacter baumannii [24] = assay: Anti-bacterial activity against Acinetobacter baumannii assessed as growth inhibition by measuring optical density measured at 2 time of MIC in presence of 2 times of MIC of norfloxacin by Checkerboard assay (reference value: 0.155); assay type: functional
Acinetobacter baumannii [25] = assay: Reduction of biofilm virulent factors in Acinetobacter baumannii assessed as decrease in extracellular polymeric substances (EPS) by measuring optical density at 490 nm at 2 times of MIC concentration by congo red binding assay (reference value: 0.188 to 0.192); assay type: functional
Acinetobacter baumannii [26] = assay: Antibiofilm activity against Acinetobacter baumannii assessed as clearance rate of mature biofilm at 8 times of MIC concentration relative to control; assay type: functional
Cell membrane [27] = assay: Induction of physical destruction of cell membrane in Acinetobacter baumannii assessed as leakage of nucleic acid by measuring absorbance of 260 nm at 1/4 to 8 times of MIC concentration; assay type: cell membranes
Escherichia coli [28] = assay: Antibiofilm activity against Escherichia coli ATCC 25922 assessed as clearance rate of mature biofilm at MIC concentration relative to control; assay type: functional
Pseudomonas aeruginosa [29] = assay: Anti-bacterial activity against Pseudomonas aeruginosa ATCC 15442 assessed as inhibition of bacterial growth; assay type: functional; settings: Pseudomonas aeruginosa, ATCC 15442; read-out: MIC
Escherichia coli [30] = assay: Anti-bacterial activity against Escherichia coli ATCC 25922 assessed as growth inhibition by measuring optical density measured at 1 time of MIC in presence of 1/2 times of MIC of norfloxacin by Checkerboard assay (reference value: 0.125); assay type: functional
Cell membrane [31] = assay: Induction of physical destruction of cell membrane in Acinetobacter baumannii assessed as leakage of protein at 1/4 to 8 times of MIC concentration by Coomassie blue quantitative assay; assay type: cell membranes
Acinetobacter baumannii [32] = assay: Anti-bacterial activity against Acinetobacter baumannii assessed as growth inhibition by measuring optical density measured at 4 time of MIC in presence of 1/8 times of MIC of norfloxacin by Checkerboard assay (reference value: 0.152); assay type: functional
[33] = Hemolysis in human RBC assessed as morphological changes of RBC by measuring intact/smooth surface rounded cell surface at 128 times of MIC concentration for 6 hrs by microscopic analysis; assay type: toxicity, cell-based; settings: erythrocyte

For `CCCCc1nc(Cl)c(C2NC(=O)NC(CN3CCN(C(=O)/C(=N/OC)c4csc(N)n4)CC3)=C2C(=O)OCC)[nH]1` (centres undefined), the Activity (Acinetobacter baumannii [1]) was “Active”, the OD (Escherichia coli [2]) was 0.112 and the MIC (Staphylococcus aureus [3]) was 26 µM (≈ 15.8 µg/mL). For the same compound, the Activity (Escherichia coli [4]) was 52.3%, the OD (Acinetobacter baumannii [5]) was 0.107 and the Activity (Cell membrane [6]) was “inactive”. It also gave an MIC (Pseudomonas aeruginosa [7]) of 26 µM (≈ 15.8 µg/mL), an Activity (Acinetobacter baumannii [8]) of 70.2% and an OD (Acinetobacter baumannii [9]) of 0.05. The MIC (Acinetobacter baumannii [10]) was 7 µM (≈ 4.26 µg/mL), the OD (Escherichia coli [11]) was 0.12 and the OD (Escherichia coli [12]) was 0.071. The “inhibition (INH)” value (Acinetobacter baumannii [13]) was 23.5%, the OD (Acinetobacter baumannii [14]) was 0.117 and the OD (Acinetobacter baumannii [15]) was 0.178. For the same compound, the MIC (Pseudomonas aeruginosa [16]) was 26 µM (≈ 15.8 µg/mL), the Activity (Escherichia coli [17]) was “Active” and the Activity (Calf thymus DNA) was “Active”. The OD (Escherichia coli [18]) was 0.122, the MIC (Pseudomonas aeruginosa [19]) was 26 µM (≈ 15.8 µg/mL) and the “inhibition (INH)” value (Escherichia coli [20]) was over 70.2%. The MIC (Staphylococcus aureus [21]) was 7 µM (≈ 4.26 µg/mL), the “fractional inhibitory concentration index (FICI)” value (Acinetobacter baumannii [22]) was 0.75 and the Activity (Acinetobacter baumannii [23]) was “Active”. For the same compound, the OD (Acinetobacter baumannii [24]) was 0.051, the OD (Acinetobacter baumannii [25]) was 0.13 and the Activity (Acinetobacter baumannii [26]) was 42.6%. The Activity (Cell membrane [27]) was “Active”, the Activity (Escherichia coli [28]) was 37.7% and the MIC (Pseudomonas aeruginosa [29]) was 26 µM (≈ 15.8 µg/mL). For the same compound, the OD (Escherichia coli [30]) was 0.096, the Activity (Cell membrane [31]) was “Active” and the OD (Acinetobacter baumannii [32]) was 0.118. For the same compound, the Activity [33] was “Non-Toxic”.
